How the values were obtained:
FHIT [1] = target: T1, FHIT (Homo sapiens, UniProt P49789); assay: MST assay, purified Red-NHS labeled FHIT; format: binding
T1 construct: GST (N, cleaved yes); made in house; host or cells: E. coli BL21 (DE3)
Experimental: The gene encoding human FHIT (P49789) was synthesized (Genscript, China) and cloned into pGEX-6P-1 such that the expressed protein would have an N-terminal glutathione S-transferase (GST)-tagged protein. The construct was transformed into expression host E.coli BL21 (DE3), and cells were grown in LB medium at 37 °C until the OD600 reached 0.6. The cells were then induced by adding 0.1 mM isopropyl-β-D-l-thiogalactopyranoside (IPTG) and grown at 18 °C overnight. Cells were harvested by centrifugation. The cell pellet was resuspended in a buffer containing 20 mM Tris (pH 7.5), 500 mM NaCl, and 2 mM DTT and lysed by sonication. After centrifugation, the clarified cell lysate was incubated with glutathione-sepharose 4B beads, and GST-tagged FHIT was eluted with the buffer consisting of 50 mM reduced glutathione. […]
Ten million 293 cells overexpressing GFP-tagged FHIT or free GFP were lysed in 0.5 mL M-PER mammalian protein extraction reagent (Thermo Fisher Scientific). […] The fluorescence signal during the thermophoresis was monitored and the change in fluorescence was analyzed by software. The Kd was calculated by fitting a standard binding curve to the series diluted ligands. And data were analyzed by GraphPad Prism 7.0.

FHIT truncation TR1 = FHIT truncation TR1 (Homo sapiens, UniProt P49789); assay: Cellular MST assay, GFP tagged FHIT truncation TR1; format: binding
Experimental: (§1) Ten million 293 cells overexpressing GFP-tagged FHIT or free GFP were lysed in 0.5 mL M-PER mammalian protein extraction reagent (Thermo Fisher Scientific). Cell lysates were diluted in PBS buffer to a final concentration at which the fluorescent signals of the GFP proteins were suitable for the detection of the Monolith NT.115 instrument (NanoTemper Technologies). A single point screening assay was developed against GFP-FHIT protein to find potential binding molecules from compound libraries (L1021,APExBIO). For binding affinity detection, a 10µL protein sample was mixed with 10µL ligand at various concentrations as indicated. And the purified proteins were labeled by Red- NHS kit in accordance with the manufacturer’s protocol (MO-L011, NanoTemper Technologies). Then the mixture solutions were loaded into NT.115 standard coated capillaries or premium coated capillaries (NanoTemper Technologies), and the MST measurements were performed at 25 °C. The fluorescence signal during the thermophoresis was monitored and the change in fluorescence was analyzed by software. The Kd was calculated by fitting a standard binding curve to the series diluted ligands. And data were analyzed by GraphPad Prism 7.0.

FHIT truncation TR2 = FHIT truncation TR2 (Homo sapiens, UniProt P49789); assay: Cellular MST assay, GFP tagged FHIT truncation TR2; format: binding
Experimental: as §1

HINT1 = target: T2, HINT1 (Homo sapiens, UniProt P49773); assay: MST assay, purified HINT1; format: binding
T2 construct: 6xHis (N); made in house; host or cells: E. coli BL21(DE3)

FHIT [2] = target: T1, FHIT; assay: FHIT hydrolase activity detection assay (Ap3A, ADP-Glo); format: biochemical; conditions: 5 nM FHIT, 500 nM Ap3A, ADP production by ADP-Glo
Experimental: 5 nM FHIT protein was mixed with series diluted compounds as indicated in assay buffer (20 mM Tris–HCl, 2 mM DTT, 5 mM MgCl2, pH7.5) in a final DMSO concentration of 1% in a total volume of 20 μL. The mixtures were incubated for 30 min at 25 °C, then 500 nM Ap3A was added. After incubation at 25 °C for 5 min, the production of ADP in the reaction system was detected by ADP-Glo reagent (V6930, Promega) according to the manufacturer’s protocol in 384-well. Luminescence was read by spark (TECAN), an integration time of 1 s per well. And the data were analyzed by GraphPad Prism 7.0.

FHIT (H96N) = target: T3, FHIT (H96N) (Homo sapiens, UniProt P49789, H96N); assay: Fluorescence polarization assay, FHIT H96N-ApppBODIPY binding inhibition; conditions: 5 µM FHIT (H96N), 1 µM ApppBODIPY
T3 construct: GST (N, cleaved yes); made in house; host or cells: E. coli BL21 (DE3)
Experimental: The binding of FHIT (H96N) to fluorescein-labeled substrates ApppBODIPY was analyzed by fluorescence polarization assay in 384-well format for dose–response curve studies using spark instrument (TECAN) according to the protocol reported before. And 5 µM FHIT (H96N) protein was incubated with 1 µM fluorescein-labeled substrates in buffer A (25 mM Tris–HCl, pH 7.5, 5 mM MgCl2 and 2 mM DTT) with series diluted inhibitors as indicated. Each sample was allowed to equilibrate in the solution for 30 min. After 30 min, the steady-state fluorescence anisotropy (mP) was measured. A second reading was taken after 10 min, to ensure that the mixture was well-equilibrated and stable. Less than 5% change was observed between 30 and 40 min measurements. The IC50 value was determined by fitting the binding curves using GraphPad Prism 7.0.

HCT116 cells = assay: CCK-8 assay for cell inhibitory rate; format: cell-based, human; conditions: WT HCT116 cells, concentration as high as 100 µM
Experimental: The CCK-8 (Cell-Counting Kit-8) assay was used to detect the cells’inhibitory rate following the manufacturer’s protocol (APExBIO). Cells were seeded into 96-well plates at the density of 4 × 10^3(cells/well) overnight at 37 °C. After that, the culture medium was removed and the cells were treated with different concentrations of TSA (0, 1, 2, 5, 10 µM) or STS (0, 10, 25, 50, 100 µM) for 24 h, 48 h, 72 h respectively. Then 10 μL CCK-8 reagent was added into each well and incubated for another 2 h, OD450 was measured by a microplate reader (spark, TECAN).

T1 sequence (P49789 whole entry): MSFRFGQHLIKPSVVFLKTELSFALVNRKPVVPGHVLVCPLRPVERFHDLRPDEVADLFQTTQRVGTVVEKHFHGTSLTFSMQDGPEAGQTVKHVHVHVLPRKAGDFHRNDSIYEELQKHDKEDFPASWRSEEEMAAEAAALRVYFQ
T3 sequence (P49789 whole entry H96N): as the sequence (P49789 whole entry) above, with H96N counted along it
T2 sequence (P49773 whole entry): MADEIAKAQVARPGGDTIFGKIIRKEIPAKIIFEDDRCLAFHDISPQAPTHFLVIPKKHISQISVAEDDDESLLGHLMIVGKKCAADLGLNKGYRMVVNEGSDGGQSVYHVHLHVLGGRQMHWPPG
Sequence of FHIT truncation TR1 (P49789 2-109): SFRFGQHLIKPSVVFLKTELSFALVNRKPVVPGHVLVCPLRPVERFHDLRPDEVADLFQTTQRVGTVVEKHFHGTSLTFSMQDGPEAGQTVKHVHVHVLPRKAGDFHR
Sequence of FHIT truncation TR2 (P49789 whole entry, the tested form may be a part): as the sequence (P49789 whole entry) above

`Cc1c(S(=O)(=O)O)oc2c1C(=O)C(=O)c1c-2ccc2c1CCCC2(C)C` [STS, Sodium tanshinone IIA sulfonate] was tested, and the Kd (FHIT [1]; FHIT purified from E.coli, Red-NHS labeled, MST) was 1820 ± 300 nM, the “binding affinity of purified FHIT, times lower than cellular FHIT” value (FHIT [1]; purified FHIT vs cellular GFP-FHIT) was 5 and the Kd (FHIT truncation TR1) was 75100 nM. For the same molecule, the Kd (FHIT truncation TR2) was 58200 nM, the “direct binding (MST binding curve)” value (HINT1) was “no direct binding curve was observed” and the IC50 (FHIT [2]) was 340 ± 90 nM. For the same molecule, the IC50 (FHIT (H96N)) was 2200 ± 50 nM and the “cytotoxicity (CCK8)” value (HCT116 cells) was “no cytotoxicity”.

From publication PMC8190080, “Tanshinones induce tumor cell apoptosis via directly targeting FHIT” (Scientific Reports, 2021)
